Structures can show the parent of a compound that is named as a salt.
Tests used:
Conditions in all cases: 72 h
HepG2 [1] = assay: relative viability EC50 (midpoint between 100% and the lowest measured viability); higher = less toxic
Caco-2 [2] = assay: as above
U2OS [3] = assay: as above
Vero E6 [4] = assay: as above
Calu-3 [5] = assay: as above
HepG2 [6] = assay: drug sensitivity score (DSS) for viability; higher = more toxic; extreme values may be limits of the assay
Caco-2 [7] = assay: as above
U2OS [8] = assay: as above
Vero E6 [9] = assay: as above
Calu-3 [10] = assay: as above
HepG2 [11] = assay: cell viability relative to DMSO; higher = less toxic
Caco-2 [12] = assay: as above
U2OS [13] = assay: as above
Vero E6 [14] = assay: as above
Calu-3 [15] = assay: as above

SMILES | relative viability EC50 (HepG2 [1]) | relative viability EC50 (Caco-2 [2]) | relative viability EC50 (U2OS [3]) | relative viability EC50 (Vero E6 [4]) | relative viability EC50 (Calu-3 [5]) | drug sensitivity score (HepG2 [6]) | drug sensitivity score (Caco-2 [7]) | drug sensitivity score (U2OS [8]) | drug sensitivity score (Vero E6 [9]) | drug sensitivity score (Calu-3 [10]) | cell viability (HepG2 [11]; 1 nM) | cell viability (HepG2 [11]; 10 nM) | cell viability (HepG2 [11]; 100 nM) | cell viability (HepG2 [11]; 1000 nM) | cell viability (HepG2 [11]; 10000 nM) | cell viability (Caco-2 [12]; 1 nM) | cell viability (Caco-2 [12]; 10 nM) | cell viability (Caco-2 [12]; 100 nM) | cell viability (Caco-2 [12]; 1000 nM) | cell viability (Caco-2 [12]; 10000 nM) | cell viability (U2OS [13]; 1 nM) | cell viability (U2OS [13]; 10 nM) | cell viability (U2OS [13]; 100 nM) | cell viability (U2OS [13]; 1000 nM) | cell viability (U2OS [13]; 10000 nM) | cell viability (Vero E6 [14]; 1 nM) | cell viability (Vero E6 [14]; 10 nM) | cell viability (Vero E6 [14]; 100 nM) | cell viability (Vero E6 [14]; 1000 nM) | cell viability (Vero E6 [14]; 10000 nM) | cell viability (Calu-3 [15]; 1 nM) | cell viability (Calu-3 [15]; 10 nM) | cell viability (Calu-3 [15]; 100 nM) | cell viability (Calu-3 [15]; 1000 nM) | cell viability (Calu-3 [15]; 10000 nM)
Cn1cc(C[C@@H](N)C(=O)O)c2ccccc21 [indoximod] | > 10 µM | > 10 µM | > 10 µM | > 10 µM | > 10 µM | 0 | 0.1 | 0 | 0 | 0 | 114% | 97.6% | 102% | 118% | 101% | 94.5% | 83.8% | 81.7% | 91.7% | 104% | 102% | 97% | 102% | 99.4% | 103% | 104% | 95.4% | 91.6% | 101% | 102% | 107% | 98.7% | 96.3% | 103% | 106%
CCn1cc(C(=O)O)c(=O)c2cc(F)c(N3CCNC(C)C3)c(F)c21 (stereo not given) [lomefloxacin] | > 10 µM | > 10 µM | > 10 µM | > 10 µM | > 10 µM | 0 | 0 | 0 | 0 | 2.4 | 114% | 111% | 120% | 102% | 94.1% | 107% | 103% | 108% | 91.2% | 104% | 105% | 98.3% | 102% | 104% | 104% | 105% | 103% | 98.8% | 106% | 95.3% | 95.8% | 96.8% | 108% | 80.1% | 94.6%
CC(C)c1cc(C(=O)N2Cc3ccc(CN4CCN(C)CC4)cc3C2)c(O)cc1O | 0.068 µM | 0.174 µM | 0.232 µM | 0.492 µM | 0.145 µM | 26 | 13.1 | 18.8 | 11 | 13.3 | 108% | 103% | 28.4% | 1.5% | 1.2% | 98.5% | 94.8% | 85.8% | 40% | 39.1% | 101% | 102% | 85.3% | 8.1% | 3.4% | 104% | 104% | 101% | 40.4% | 30.7% | 101% | 96.4% | 77.8% | 41.7% | 38.9%
C#C[C@]1(O)CC[C@H]2[C@@H]3CCC4=CC(=O)CC[C@@H]4[C@H]3C(=C)C[C@@]21CC [etonogestrel] | > 10 µM | > 10 µM | > 10 µM | > 10 µM | > 10 µM | 0 | 0.6 | 0 | 0 | 0 | 95.4% | 97.2% | 94.1% | 90% | 104% | 87.3% | 75.4% | 98.7% | 81.7% | 104% | 93.8% | 95.1% | 93.8% | 97.1% | 103% | 98.2% | 84.7% | 95.6% | 85.2% | 104% | 92.7% | 95.1% | 104% | 97.6% | 102%
COc1cccc(C2(O)CCCCC2CN(C)C)c1 (stereo not given) [TRAMADOL HYDROCHLORIDE] | > 10 µM | > 10 µM | > 10 µM | > 10 µM | > 10 µM | 0 | 0 | 0 | 0 | 0 | 93.5% | 96.8% | 97.4% | 89.8% | 106% | 93.9% | 100% | 96.2% | 95.2% | 98.3% | 103% | 105% | 97.5% | 99.3% | 99.9% | 101% | 103% | 101% | 97.4% | 101% | 106% | 98.2% | 115% | 101% | 96.2%
CCC[C@@]1(CCc2ccccc2)CC(O)=C([C@H](CC)c2cccc(NS(=O)(=O)c3ccc(C(F)(F)F)cn3)c2)C(=O)O1 [tipranavir] | > 10 µM | > 10 µM | > 10 µM | > 10 µM | > 10 µM | 0 | 0 | 0 | 0 | 0 | 94.8% | 103% | 93.6% | 103% | 93.9% | 98.5% | 97.1% | 93.6% | 103% | 93.1% | 100% | 99.4% | 100% | 104% | 101% | 104% | 102% | 100% | 102% | 105% | 107% | 98.1% | 102% | 109% | 118%
CSc1ccc(C(=O)N[C@@H]2CCCC[C@@H]2NC(=O)CNC(=O)c2cc(C(F)(F)F)ccc2NC(=O)NC(C)C)cc1 [BMS-CCR2-22] | > 10 µM | > 10 µM | > 10 µM | > 10 µM | > 10 µM | 0.1 | 0 | 0 | 0 | 0 | 108% | 95.8% | 101% | 98% | 88% | 93.2% | 87.7% | 94.5% | 100% | 89.6% | 102% | 101% | 96.5% | 103% | 94.5% | 101% | 102% | 102% | 101% | 95.1% | 112% | 94% | 98.1% | 101% | 101%
CN1CCC(OC(c2ccccc2)c2ccccc2)CC1 [diphenylpyraline] | > 10 µM | > 10 µM | > 10 µM | > 10 µM | > 10 µM | 0 | 0 | 0 | 0 | 0 | 89.7% | 98.2% | 90.6% | 103% | 111% | 96.1% | 96.3% | 97.6% | 102% | 94.6% | 103% | 95.7% | 102% | 95.1% | 98.6% | 94.6% | 106% | 97.1% | 104% | 109% | 97.3% | 90% | 98.7% | 94.9% | 95.1%
COc1ccc2c(c1OC)C(=O)O[C@@H]2[C@H]1c2c(cc3c(c2OC)OCO3)CCN1C [noscapine] | > 10 µM | > 10 µM | > 10 µM | > 10 µM | > 10 µM | 0 | 0 | 0 | 0 | 0 | 105% | 100% | 86.2% | 100% | 104% | 115% | 109% | 98% | 110% | 105% | 103% | 98.7% | 101% | 97.5% | 102% | 98.4% | 102% | 96.9% | 104% | 104% | 97.3% | 103% | 102% | 95.9% | 95.8%
S=C=Nc1cccc(NC(=S)NCCCCNC(=S)Nc2cccc(N=C=S)c2)c1 [MRS-2578] | > 10 µM | > 10 µM | > 10 µM | > 10 µM | > 10 µM | 0 | 0 | 0 | 0 | 0 | 107% | 104% | 110% | 97.7% | 103% | 100% | 91.2% | 99.7% | 98.4% | 101% | 95.9% | 95.8% | 99.5% | 97.2% | 104% | 98.3% | 98.8% | 94.2% | 99.5% | 98.7% | 90.7% | 93.6% | 109% | 90.2% | 107%
O=C(NC1(c2ccccc2)CC1)c1c(CN2CCC(N3CCCCC3)CC2)c(-c2cccc(C(F)(F)F)c2)nc2cc(Br)ccc12 | 3.4 µM |  | 2.81 µM | 3.09 µM | 2.02 µM | 2.7 | 2.5 | 5.2 | 3.4 | 7.8 | 93.6% | 101% | 104% | 102% | 45.4% | 95.4% | 88.3% | 112% | 98.8% | 55.2% | 98.5% | 95.1% | 101% | 96% | 15.7% | 93.3% | 98.3% | 102% | 99.3% | 38.4% | 97.1% | 90.2% | 96% | 85.8% | 1.2%
COc1ccc(Cl)c(Nc2ncnc3cc(OCC4CCN(C)CC4)c(OC)cc23)c1 | > 10 µM |  | > 10 µM | 1.49 µM | 1.42 µM | 0 | 2.9 | 1.4 | 6.7 | 6.7 | 99.1% | 105% | 90.6% | 96.6% | 87.7% | 93% | 108% | 99.1% | 89.9% | 68.3% | 104% | 97.2% | 103% | 95.8% | 77.7% | 95.5% | 99.3% | 89.7% | 76.6% | 27.3% | 94.5% | 102% | 89.7% | 75% | 28.5%
CN1CCN(c2ccc(OC(F)(F)F)c(Nc3ncc4c(n3)-c3c(c(C(N)=O)nn3CCO)CC4)c2)CC1 | 0.139 µM |  | 0.394 µM | 0.395 µM | > 10 µM | 18.8 | 11 | 10 | 8.8 | 5.1 | 105% | 95% | 70.4% | 16.7% | 15.8% | 104% | 94.9% | 77.3% | 52% | 62.3% | 108% | 103% | 98.2% | 46.5% | 41.3% | 102% | 112% | 99.7% | 52.4% | 48.3% | 100% | 105% | 78.7% | 84.9% | 84.7%
O=c1cc(-c2cccc3c2Sc2ccccc2S3)oc(N2CCOCC2)c1 | > 10 µM |  | > 10 µM | > 10 µM | > 10 µM | 0.1 | 2.5 | 0 | 0.2 | 0 | 104% | 102% | 93.5% | 108% | 85.9% | 103% | 102% | 98.2% | 93.3% | 67.8% | 99.8% | 99.6% | 102% | 100% | 93.3% | 97.5% | 102% | 101% | 106% | 83.3% | 100% | 98.9% | 98.2% | 104% | 106%
c1cc(-c2cnn3cc(-c4ccc(OCCN5CCCCC5)cc4)cnc23)ccn1 [dorsomorphin] | 2.52 µM |  | 2.31 µM | 2.9 µM | 3.02 µM | 6 | 3 | 6 | 5.5 | 2.9 | 103% | 103% | 90.5% | 93.1% | 11.6% | 96.8% | 96.6% | 89.4% | 95.1% | 56.5% | 102% | 104% | 95.9% | 91.4% | 16.7% | 98.5% | 94.5% | 102% | 96.8% | 9.1% | 102% | 95.6% | 99.4% | 98.9% | 47.4%

From the supplement of paper PMC13380429
